Reference: ChEMBL document CHEMBL1201862, “PubChem BioAssay data set” (2004)
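Results reflect a 48-hour exposure of cells in 96-well plates to compound at five concentrations. GI50 marks 50% less growth.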 Active and inactive are the calls of the source. Rule as the data show it: active = GI50 up to about 1.1 µM and inactive = higher.

What was measured:
Test in all cases: NCI tumour cell line growth inhibition, 48 h
SN12C = tested on: SN12C
MDA-N = tested on: MDA-N
SF-268 = tested on: SF-268
A549 = tested on: A549
OVCAR-3 = tested on: OVCAR-3
OVCAR-4 = tested on: OVCAR-4
HT-29 = tested on: HT-29
NCI-H23 = tested on: NCI-H23
CAKI-1 = tested on: CAKI-1
ACHN = tested on: ACHN
UO-31 = tested on: UO-31
HL-60 = tested on: HL-60
M14 = tested on: M14
MDA-MB-231 = tested on: MDA-MB-231
NCI/ADR-RES = tested on: NCI/ADR-RES
SF-295 = tested on: SF-295
MCF7 = tested on: MCF7
MDA-MB-435 = tested on: MDA-MB-435
NCI-H460 = tested on: NCI-H460
LOX IMVI = tested on: LOX IMVI

Measured: GI50

C=C(Br)C(Cl)(CBr)CCC(Br)C(C)(C)Cl (stereo unspecified)
inactive: SN12C > 10 µM | MDA-N > 10 µM | SF-268 > 10 µM | A549 > 10 µM | OVCAR-3 > 10 µM | OVCAR-4 > 10 µM | HT-29 > 10 µM | NCI-H23 > 10 µM | CAKI-1 > 10 µM | ACHN > 10 µM | UO-31 > 10 µM | HL-60 > 10 µM | M14 > 10 µM | MDA-MB-231 > 10 µM | NCI/ADR-RES > 10 µM | SF-295 > 10 µM | MCF7 7.83 µM | MDA-MB-435 > 10 µM

FC(F)(F)c1cccnc1Sc1nc2ccccc2s1
inactive: SN12C > 100 µM | MDA-N > 100 µM | SF-268 > 100 µM | A549 > 100 µM | OVCAR-3 11.3 µM | OVCAR-4 > 100 µM | HT-29 > 100 µM | NCI-H23 80.4 µM | NCI-H460 > 100 µM | CAKI-1 > 100 µM | ACHN > 100 µM | UO-31 32.1 µM | M14 37.6 µM | MDA-MB-231 63.8 µM | NCI/ADR-RES > 100 µM | SF-295 63 µM | MCF7 > 100 µM | MDA-MB-435 > 100 µM

CCN(CC)CCn1c2cc3c(cc2c(=O)c2cccnc21)OCCO3
inactive: SN12C 9.71 µM | MDA-N > 10 µM | SF-268 > 10 µM | A549 > 10 µM | OVCAR-3 > 10 µM | OVCAR-4 > 10 µM | HT-29 > 10 µM | NCI-H23 > 10 µM | CAKI-1 > 10 µM | ACHN 4.99 µM | HL-60 > 10 µM | M14 > 10 µM | MDA-MB-231 9.51 µM | NCI/ADR-RES > 10 µM | SF-295 > 10 µM | MCF7 7.82 µM | MDA-MB-435 > 10 µM

O=C1C=Cc2c(Cl)sc(Cl)c21
inactive: SN12C 2.18 µM | MDA-N 2.53 µM | SF-268 1.66 µM | A549 4.24 µM | OVCAR-3 1.85 µM | OVCAR-4 6.01 µM | HT-29 1.46 µM | NCI-H23 2.22 µM | NCI-H460 9.31 µM | CAKI-1 2.15 µM | ACHN 1.71 µM | UO-31 1.6 µM | M14 1.87 µM | MDA-MB-231 2.86 µM | NCI/ADR-RES 2.03 µM | SF-295 8.59 µM | MDA-MB-435 2.02 µM
active: LOX IMVI 0.372 µM | MCF7 1.05 µM

O=C(CC1(O)CCCCC1)OC1CCCC1
inactive: SN12C > 100 µM | MDA-N > 100 µM | SF-268 > 100 µM | A549 > 100 µM | OVCAR-3 > 100 µM | OVCAR-4 > 100 µM | HT-29 > 100 µM | NCI-H23 > 100 µM | NCI-H460 > 100 µM | CAKI-1 > 100 µM | ACHN > 100 µM | UO-31 > 100 µM | M14 > 100 µM | MDA-MB-231 > 100 µM | LOX IMVI > 100 µM | NCI/ADR-RES > 100 µM | SF-295 > 100 µM | MCF7 > 100 µM | MDA-MB-435 > 100 µM

COc1ccc(Nc2c[nH]c(=O)[nH]c2=O)cc1
inactive: SN12C > 100 µM | MDA-N > 100 µM | A549 > 100 µM | OVCAR-3 > 100 µM | OVCAR-4 > 100 µM | HT-29 > 100 µM | NCI-H23 > 100 µM | CAKI-1 > 100 µM | ACHN > 100 µM | UO-31 > 100 µM | HL-60 > 100 µM | M14 > 100 µM | MDA-MB-231 > 100 µM | LOX IMVI > 100 µM | NCI/ADR-RES > 100 µM | SF-295 > 100 µM | MCF7 > 100 µM | MDA-MB-435 > 100 µM

COCOc1c(C(OCOC)c2cnc(Sc3ccccc3)n2C)ccc(OC)c1OC (stereo unspecified)
inactive: SN12C > 100 µM | MDA-N > 100 µM | SF-268 > 100 µM | A549 > 100 µM | OVCAR-3 > 100 µM | OVCAR-4 > 100 µM | HT-29 > 100 µM | NCI-H23 > 100 µM | NCI-H460 > 100 µM | CAKI-1 > 100 µM | ACHN > 100 µM | UO-31 73.6 µM | HL-60 > 100 µM | MDA-MB-231 > 100 µM | LOX IMVI > 100 µM | NCI/ADR-RES 94.4 µM | SF-295 > 100 µM | MCF7 > 100 µM | MDA-MB-435 > 100 µM

N#CC1=CNc2sccc2S1(=O)=O
inactive: SN12C > 100 µM | MDA-N > 100 µM | SF-268 81.7 µM | A549 > 100 µM | OVCAR-3 > 100 µM | OVCAR-4 > 100 µM | HT-29 > 100 µM | NCI-H23 > 100 µM | NCI-H460 40.7 µM | CAKI-1 > 100 µM | ACHN > 100 µM | UO-31 92.9 µM | M14 > 100 µM | MDA-MB-231 > 100 µM | LOX IMVI > 100 µM | NCI/ADR-RES > 100 µM | SF-295 > 100 µM | MCF7 > 100 µM | MDA-MB-435 89.7 µM

CSc1nc(Cl)c2c(n1)Sc1nc3cc4c(cc3n1C2O)OCO4 (stereo unspecified)
active: SN12C 0.578 µM | MDA-N 0.237 µM | SF-268 0.637 µM | A549 0.617 µM | OVCAR-3 0.982 µM | HT-29 0.254 µM | NCI-H23 0.891 µM | NCI-H460 0.364 µM | ACHN 0.946 µM | UO-31 0.46 µM | M14 0.333 µM | MDA-MB-231 0.391 µM | LOX IMVI 0.206 µM | NCI/ADR-RES 0.385 µM | SF-295 0.818 µM | MCF7 0.338 µM | MDA-MB-435 0.232 µM
inactive: OVCAR-4 > 100 µM | CAKI-1 2.95 µM

CC(C)C(CC(=O)OCC(CO)OC(=O)CC(C(C)C)C(C)C)C(C)C (stereo unspecified)
inactive: SN12C 12.9 µM | MDA-N 13.6 µM | SF-268 14.3 µM | A549 11 µM | OVCAR-3 13.9 µM | OVCAR-4 18 µM | HT-29 17.4 µM | NCI-H23 16.6 µM | NCI-H460 11.8 µM | CAKI-1 12.3 µM | ACHN 10.9 µM | UO-31 14.6 µM | M14 14.1 µM | MDA-MB-231 15.7 µM | NCI/ADR-RES 13.5 µM | SF-295 6.27 µM | MCF7 17.5 µM | MDA-MB-435 13.7 µM

Cc1cccc2c1[C@]13OC(C)[C@]4(C)CC5OC(=O)[C@@]1(C)[C@@H]5[C@]34C(=O)O2 (stereo partly specified)
inactive: SN12C > 100 µM | MDA-N > 100 µM | SF-268 > 100 µM | A549 > 100 µM | OVCAR-3 > 100 µM | HT-29 > 100 µM | NCI-H23 > 100 µM | NCI-H460 > 100 µM | CAKI-1 > 100 µM | ACHN > 100 µM | UO-31 > 100 µM | HL-60 > 100 µM | M14 > 100 µM | MDA-MB-231 > 100 µM | LOX IMVI > 100 µM | NCI/ADR-RES > 100 µM | SF-295 > 100 µM | MCF7 > 100 µM | MDA-MB-435 > 100 µM

N#Cc1c(-c2ccccc2)c(C#N)c(=O)n(NS(=O)(=O)c2ccccc2)c1O
inactive: SN12C > 100 µM | MDA-N > 100 µM | SF-268 > 100 µM | A549 > 100 µM | OVCAR-4 > 100 µM | HT-29 > 100 µM | NCI-H460 > 100 µM | CAKI-1 > 100 µM | ACHN > 100 µM | HL-60 > 100 µM | M14 > 100 µM | MDA-MB-231 > 100 µM | LOX IMVI > 100 µM | NCI/ADR-RES > 100 µM | SF-295 > 100 µM | MCF7 > 100 µM | MDA-MB-435 > 100 µM

COc1c(C)c(OCC=C(C)C)cc(CO)c1CO
inactive: SN12C 88.3 µM | MDA-N 71.3 µM | SF-268 > 100 µM | A549 47.5 µM | OVCAR-4 35.6 µM | HT-29 54.5 µM | NCI-H23 38.7 µM | NCI-H460 38.7 µM | CAKI-1 46.8 µM | ACHN 67.8 µM | HL-60 47.5 µM | M14 > 100 µM | MDA-MB-231 69.8 µM | LOX IMVI 28.9 µM | NCI/ADR-RES 26.3 µM | SF-295 45.4 µM | MCF7 38.5 µM | MDA-MB-435 55.3 µM

C=C1C(=O)CCC1C(=O)O (stereo unspecified)
inactive: SN12C > 100 µM | MDA-N > 100 µM | SF-268 > 100 µM | A549 > 100 µM | OVCAR-3 > 100 µM | OVCAR-4 > 100 µM | HT-29 > 100 µM | NCI-H23 > 100 µM | NCI-H460 > 100 µM | ACHN > 100 µM | UO-31 > 100 µM | HL-60 > 100 µM | M14 > 100 µM | MDA-MB-231 > 100 µM | LOX IMVI > 100 µM | NCI/ADR-RES > 100 µM | SF-295 > 100 µM | MCF7 > 100 µM | MDA-MB-435 > 100 µM

O=C(N/N=C\c1ccc([N+](=O)[O-])cc1)c1ccccc1Nc1ccccc1C(=O)N/N=C/c1ccc([N+](=O)[O-])cc1
inactive: SN12C > 100 µM | MDA-N > 100 µM | SF-268 > 100 µM | A549 > 100 µM | OVCAR-3 > 100 µM | OVCAR-4 > 100 µM | HT-29 > 100 µM | NCI-H23 > 100 µM | NCI-H460 > 100 µM | CAKI-1 > 100 µM | ACHN > 100 µM | UO-31 > 100 µM | HL-60 89.7 µM | M14 27.3 µM | MDA-MB-231 25.8 µM | NCI/ADR-RES > 100 µM | SF-295 > 100 µM | MCF7 > 100 µM | MDA-MB-435 > 100 µM
